Assay results as given in patent US5527820A, “Antibiotics having immunosuppressive activity, delaminomycins and processes for the production of the same” (priority 1992, dated 1996).
Values after ≈ are worked out from the molar mass of the structure shown.

Assays:
Gram-positive bacteria = test: Antibacterial activity to Gram-positive bacteria; format: cell-based; conditions: result in words
Source text: (§1) Delaminomycins A, B, C, A2, B2 and C2 according to this invention further have an antibacterial activity against a variety of bacteria. The minimum growth inhibitory concentrations (MIC) (μg/ml) of the novel antibiotics of this invention on various bacteria and fungi as measured by the agar plate dilution method are shown in Table 5a, Table 5b, Table 5c and Table 5d below.

Candida albicans 3147 = test: MIC, agar plate dilution method; format: cell-based; conditions: 27° C., 42 hours, nutrient agar containing glucose
[1] = test system: Trichophyton mentagrophytes F-15 (833); test: MIC, agar plate dilution method; format: cell-based; conditions: 27° C., 42 hours, nutrient agar containing glucose
[2] = test system: Cryptococcus neoformans F-10; test: MIC, agar plate dilution method; format: cell-based; conditions: F10, 27° C., 42 hours, nutrient agar containing glucose
Xanthomonas citri = test: MIC, agar plate dilution method; format: cell-based; conditions: 27° C., 42 hours, nutrient agar containing glucose
Experimental: as §1
(§2) Evaluated after culturing at 27° C. for 42 hours in nutrient agar
(§3) medium containing glucose.

Cochliobolus miyabeanus = test: MIC, agar plate dilution method; format: cell-based; conditions: Bipolaris oryzae; 27° C., 42 hours, nutrient agar containing glucose
Experimental: as §1, §2, §3

[3] = test system: nylon wool-passed cells of spleen cells (responder cell; T cells); test: Inhibitory activity to the mixed lymphocyte culture reaction; format: cell-based, rat (Fischer F344 responder; WKY stimulator); conditions: for IC50: 120 hours, 3H-thymidine incorporation, read-out: IC50 (inhibition of mixed lymphocyte culture reaction); for activity to inhibit the proliferation of the T cells (responder cell) in mixed lymphocyte culture reaction: in vitro, result in words
Candida krusei F-5 = test: MIC, agar plate dilution method; format: cell-based; conditions: Pichia kudriavzevii, F5; 27° C., 42 hours, nutrient agar containing glucose
Mouse melanoma B-16 = test: Inhibitory activity on proliferation of cancer cells; format: cell-based; conditions: B16
Mouse leukemia EL-4 = test: as above; format: cell-based; conditions: EL4
Aspergillus niger F-16 = test: MIC, agar plate dilution method; format: cell-based; conditions: F16, 27° C., 42 hours, nutrient agar containing glucose
[4] = test system: Trichophyton asteroides 429; test: MIC, agar plate dilution method; format: cell-based; conditions: 27° C., 42 hours, nutrient agar containing glucose
Human Lymphoma Jurkat = test: Inhibitory activity on proliferation of cancer cells; format: cell-based
[5] = Acute toxicity (LD50) in ICR mice; conditions: mouse, in vivo, ip, intraperitoneally
[6] = test system: delayed-type hypersensitivity (DTH); test: Suppressive effect on delayed-type hypersensitivity (DTH) in mouse, intraperitoneal; format: in vivo, mouse (CDF1); conditions: intraperitoneal once a day, 0-4th day
Source text: Suppressive effect of delaminomycins on delayed-type hypersensitivity (DTH) in mouse
CDF1 mice were immunized by intravenously injecting sheep red blood cells (10^5 cells/mouse). On the 4th day after the immunization, sheep red blood cells (10^8 cells/mouse) were subcutaneously injected into the footpad of mice for the elicitation to cause a delayed-type hypersensitivity (DTH). Test compound was intraperitoneally administered to the mice once a day from the 0th day to 4th day after the immunization. On the 5th day after the elicitation the thickness of the mouse footpad was measured to estimate the suppressive effect of the test compound on the DTH response. The suppressive effect of the test compound was evaluated in terms of the inhibition rate (%) as calculated according to the following equation:
(§4) Inhibition rate (%)=100-(T/C×100)
wherein T denotes the thickness of the footpad when administering the test compound, but C denotes the thickness of the footpad when administering no test compound.

Candida Yu-1200 = test: MIC, agar plate dilution method; format: cell-based; conditions: YU1200, 27° C., 42 hours, nutrient agar containing glucose
Piricularia oryzae = test: microbe, parasite or virus in culture; format: cell-based; conditions: 42 h
[7] = Absorption into the digestive tracts on oral administration; conditions: result in words
Mouse leukemia P388D1 = test: Inhibitory activity on proliferation of cancer cells; format: cell-based
[8] = test system: Candida pseudotropicalis F-2; test: MIC, agar plate dilution method; format: cell-based; conditions: Kluyveromyces marxianus, F2; 27° C., 42 hours, nutrient agar containing glucose
[9] = test system: Saccharomyces cerevisiae F-7; test: MIC, agar plate dilution method; format: cell-based; conditions: F7, 27° C., 42 hours, nutrient agar containing glucose
[10] = test system: spleen cells (T cells activated by Concanavalin A); test: Inhibitory activity against blastogenesis and proliferation of spleen cells caused by mitogen (Con A); format: cell-based, mouse (CDF1); conditions: for IC50: read-out: IC50 (inhibition of blastogenesis and proliferation of spleen lymphocyte caused by Con A); for activity inhibitory to the reaction of proliferation of mouse spleen cells activated with Concanavalin A: in vitro, result in words
Candida tropicalis F-1 = test: MIC, agar plate dilution method; format: cell-based; conditions: F1, 27° C., 42 hours, nutrient agar containing glucose
Solubility = conditions: result in words; for Solubility: various solvents
Mouse leukemia L-1210 = test: Inhibitory activity on proliferation of cancer cells; format: cell-based; conditions: L1210
Pellicularia sasakii = test: MIC, agar plate dilution method; format: cell-based; conditions: 27° C., 42 hours, nutrient agar containing glucose
[11] = test system: delayed-type hypersensitivity (DTH); test: Suppressive effect on delayed-type hypersensitivity (DTH) in mouse, oral; format: in vivo, mouse (CDF1); conditions: 2.0 mg/mouse, oral once a day, 0~4th day
Experimental: CDF1 mice were immunized by intravenously injecting sheep red blood cells (10^5 cells/mouse). On the 4th day after the immunization, sheep red blood cells (10^8 cells/mouse) were subcutaneously injected into the footpad of mice for the elicitation to cause a delayed-type hypersensitivity. Test compound was orally administered to the mice once a day from the 0 th day to the 4 th day after the immunization. On the 5th day after the elicitation, the thickness of the mouse footpad was measured to estimate the suppressive effect of the test compound on DTH. The suppressive effect of the test compound was evaluated in terms of the inhibition rate (%) as calculated according to the following equation:
as §4
wherein T denotes the thickness of the footpad when the test compound was administered, but C denotes the thickness of the footpad when no test compounnd was administered.

In the case of CCC(O)C(C)/C=C/C=C/C(O)CC1C=CC2CC(C)CC(C)C2C1(C)C(=O)C1C(=O)NC(O)C1=O (stereo not shown) [Delaminomycin A], the “antibacterial activity to Gram-positive bacteria” value (Gram-positive bacteria) is reported as “antibacterial activity to Gram-positive bacteria”, the MIC (Candida albicans 3147) is reported as > 100 µg/mL and the MIC [1] is reported as > 100 µg/mL. For the same molecule, the MIC [2] was > 100 µg/mL, the MIC (Xanthomonas citri) was > 100 µg/mL and the MIC (Cochliobolus miyabeanus) was > 100 µg/mL. The inhibition at 0.1 µg/mL ([3]; Rattus norvegicus, T-cell, 0.10 μg/ml test compound, read-out: Inhibition rate) was 17.6%, the inhibition at 0.39 µg/mL ([3]; Rattus norvegicus, T-cell, 0.39 μg/ml test compound, read-out: Inhibition rate) was 32.8% and the inhibition at 1.56 µg/mL ([3]; Rattus norvegicus, T-cell, 1.56 μg/ml test compound, read-out: Inhibition rate) was 17.5%. It also gave an inhibition at 6.25 µg/mL ([3]; Rattus norvegicus, T-cell, 6.25 μg/ml test compound, read-out: Inhibition rate) of 55.3%, an inhibition at 25 µg/mL ([3]; Rattus norvegicus, T-cell, 25 μg/ml test compound, read-out: Inhibition rate) of 95% and an inhibition at 100 µg/mL ([3]; Rattus norvegicus, T-cell, 100 μg/ml test compound, read-out: Inhibition rate) of 96.4%. The IC50 ([3]; Rattus norvegicus, T-cell) was 8.6 µg/mL (≈ 17.1 µM), the “activity to inhibit the proliferation of the T cells (responder cell) in mixed lymphocyte culture reaction” value [3] was “have an activity to inhibit the reaction of proliferation of the T cells” and the MIC (Candida krusei F-5) was > 100 µg/mL. For the same molecule, the IC50 (Mouse melanoma B-16) was 21.1 µg/mL (≈ 42.1 µM), the IC50 (Mouse leukemia EL-4) was 17.9 µg/mL (≈ 35.7 µM) and the MIC (Aspergillus niger F-16) was > 100 µg/mL. For the same molecule, the MIC [4] was > 100 µg/mL, the IC50 (Human Lymphoma Jurkat) was 3.6 µg/mL (≈ 7.18 µM) and the LD50 [5] was > 500 mg/kg. The “Inhibition rate (DTH footpad thickness)” value ([6]; 15.6 μg/mouse) was 0.1%, the “Inhibition rate (DTH footpad thickness)” value ([6]; 62.5 μg/mouse) was 52.8% and the “Inhibition rate (DTH footpad thickness)” value ([6]; 250 μg/mouse) was 85.3%. The “Inhibition rate (DTH footpad thickness)” value ([6]; 1000 μg/mouse) was 99.2%, the MIC (Candida Yu-1200) was > 100 µg/mL and the MIC (Piricularia oryzae) was > 100 µg/mL. For the same molecule, the “absorption into the digestive tracts / oral absorption” value [7] was “hardly absorbed into the digestive tracts”, the IC50 (Mouse leukemia P388D1) was 14 µg/mL (≈ 27.9 µM) and the MIC [8] was > 100 µg/mL. The MIC [9] was > 100 µg/mL, the IC50 ([10]; Mus musculus, T-cell) was 17.5 µg/mL (≈ 34.9 µM) and the inhibition at 1.56 µg/mL ([10]; Mus musculus, T-cell, 1.56 μg/ml test compound, read-out: Inhibition rate) was 0%. It also gave an inhibition at 6.25 µg/mL ([10]; Mus musculus, T-cell, 6.25 μg/ml test compound, read-out: Inhibition rate) of 31%, an inhibition at 25 µg/mL ([10]; Mus musculus, T-cell, 25 μg/ml test compound, read-out: Inhibition rate) of 57% and an inhibition at 100 µg/mL ([10]; Mus musculus, T-cell, 100 μg/ml test compound, read-out: Inhibition rate) of 88%. The “activity inhibitory to the reaction of proliferation of mouse spleen cells activated with Concanavalin A” value [10] was “exhibit an activity inhibitory to the reaction of proliferation of mouse spleen cells”, the MIC (Candida tropicalis F-1) was > 100 µg/mL and the Solubility (Solubility) was “soluble in methanol but slightly soluble or insoluble in water, acetone, ethyl ether and n-hexane”. For the same molecule, the Solubility in water (Solubility) was “barely soluble in water”, the IC50 (Mouse leukemia L-1210) was > 100 µg/mL and the MIC (Pellicularia sasakii) was > 100 µg/mL.

With CCC(O)C(C)/C=C/C=C/C1CC2C=CC3CC(C)CC(C)C3C2(C)C(=O)C12C(=O)NC(OC)C2=O (stereo not shown) [Delaminomycin B2] the “antibacterial activity to Gram-positive bacteria” value (Gram-positive bacteria) was “antibacterial activity to Gram-positive bacteria”, the MIC (Candida albicans 3147) was > 100 µg/mL and the MIC [1] was > 100 µg/mL. The MIC [2] was > 100 µg/mL, the MIC (Xanthomonas citri) was > 100 µg/mL and the MIC (Cochliobolus miyabeanus) was > 100 µg/mL. It also gave an inhibition at 0.05 µg/mL ([3]; Rattus norvegicus, T-cell, 0.05 μg/ml test compound, read-out: Inhibition rate) of 0%, an inhibition at 0.2 µg/mL ([3]; Rattus norvegicus, T-cell, 0.20 μg/ml test compound, read-out: Inhibition rate) of 12.3% and an inhibition at 0.78 µg/mL ([3]; Rattus norvegicus, T-cell, 0.78 μg/ml test compound, read-out: Inhibition rate) of 47.6%. For the same molecule, the inhibition at 3.1 µg/mL ([3]; Rattus norvegicus, T-cell, 3.1 μg/ml test compound, read-out: Inhibition rate) was 92.7%, the inhibition at 12.5 µg/mL ([3]; Rattus norvegicus, T-cell, 12.5 μg/ml test compound, read-out: Inhibition rate) was 94.1% and the inhibition at 50 µg/mL ([3]; Rattus norvegicus, T-cell, 50 μg/ml test compound, read-out: Inhibition rate) was 96.7%. For the same molecule, the IC50 ([3]; Rattus norvegicus, T-cell) was 8.6 µg/mL (≈ 17.3 µM), the “activity to inhibit the proliferation of the T cells (responder cell) in mixed lymphocyte culture reaction” value [3] was “have an activity to inhibit the reaction of proliferation of the T cells” and the “Inhibition rate (DTH footpad thickness)” value [11] was 18.4%. The MIC (Candida krusei F-5) was > 100 µg/mL, the IC50 (Mouse melanoma B-16) was 17.9 µg/mL (≈ 36 µM) and the IC50 (Mouse leukemia EL-4) was 6.8 µg/mL (≈ 13.7 µM). For the same molecule, the MIC (Aspergillus niger F-16) was > 100 µg/mL, the MIC [4] was > 100 µg/mL and the IC50 (Human Lymphoma Jurkat) was 11.4 µg/mL (≈ 22.9 µM). For the same molecule, the “Inhibition rate (DTH footpad thickness)” value ([6]; 15.6 μg/mouse) was -3.3%, the “Inhibition rate (DTH footpad thickness)” value ([6]; 62.5 μg/mouse) was 35.4% and the “Inhibition rate (DTH footpad thickness)” value ([6]; 250 μg/mouse) was 36.2%. The “Inhibition rate (DTH footpad thickness)” value ([6]; 1000 μg/mouse) was 51.3%, the MIC (Candida Yu-1200) was > 100 µg/mL and the MIC (Piricularia oryzae) was > 100 µg/mL. For the same molecule, the “absorption into the digestive tracts / oral absorption” value [7] was “hardly absorbed into the digestive tracts”, the IC50 (Mouse leukemia P388D1) was 12.1 µg/mL (≈ 24.3 µM) and the MIC [8] was > 100 µg/mL. For the same molecule, the MIC [9] was > 100 µg/mL, the IC50 ([10]; Mus musculus, T-cell) was 0.85 µg/mL (≈ 1.71 µM) and the inhibition at 0.2 µg/mL ([10]; Mus musculus, T-cell, 0.20 μg/ml test compound, read-out: Inhibition rate) was 12.3%. For the same molecule, the inhibition at 0.78 µg/mL ([10]; Mus musculus, T-cell, 0.78 μg/ml test compound, read-out: Inhibition rate) was 47.6%, the inhibition at 3.1 µg/mL ([10]; Mus musculus, T-cell, 3.1 μg/ml test compound, read-out: Inhibition rate) was 92.7% and the inhibition at 12.5 µg/mL ([10]; Mus musculus, T-cell, 12.5 μg/ml test compound, read-out: Inhibition rate) was 94.1%. The inhibition at 50 µg/mL ([10]; Mus musculus, T-cell, 50 μg/ml test compound, read-out: Inhibition rate) was 96.7%, the “activity inhibitory to the reaction of proliferation of mouse spleen cells activated with Concanavalin A” value [10] was “exhibit an activity inhibitory to the reaction of proliferation of mouse spleen cells” and the MIC (Candida tropicalis F-1) was > 100 µg/mL. The Solubility (Solubility) was “soluble in methanol, ethyl acetate, chloroform and ethyl ether but slightly soluble or insoluble in n-hexane and water”, the Solubility in water (Solubility) was “barely soluble in water” and the IC50 (Mouse leukemia L-1210) was 8 µg/mL (≈ 16.1 µM). The MIC (Pellicularia sasakii) was > 50 µg/mL.
